The values below are quoted from earlier work in patent US20150320795A1, “COMPOSITIONS AND METHODS COMPRISING POLYETHYLENE GLYCOL AND MAGNESIUM FOR TREATMENT OF NEURONAL INJURY” (priority 2012, published 2015).

Read-outs that look alike come from different tables or passages of the source.

Series [1] relates to brain injury. The following applies: animals; U.S. application Ser. No. 11/418,153.
The conditions of series [2]: previously published.

Regarding `[Mg+2]` [magnesium], the “effect on the loss of cognitive functions following brain injury” value in series [1] is recorded as “no effect”. Further, the serum magnesium half-lives is ~6 h in series [2] (brain injured patients after a 24-hour infusion period); 1.25 to 4.75 h in series [2] (healthy volunteers, after one infusion); 5.2 h in series [2] (patients, pre-eclampsia).
